Data from patent US20060069132A1, “Azolecarboxamide herbicides” (priority 2004, published 2006).

Legend:
giant foxtail [1] = test: Test B pre-/postemergence herbicide test; assay type: in vivo, Setaria faberi
Summary of the method: (§1)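 Response was scored visually 13 to 15 days after treatment against untreated greenhouse controls, 0 meaning no effect and 100 complete control. Formulations (solvent mixture plus surfactant) went onto soil after planting, onto foliage of 1- to 4-leaf plants, and onto 2-leaf plants in a flooded paddy set including rice and barnyardgrass.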

cocklebur = test: Test B pre-/postemergence herbicide test; assay type: in vivo, Xanthium strumarium
Summary of the method: (§2)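 Formulation: non-phytotoxic solvent mix with surfactant. Timing: preemergence on seed and postemergence on 2–18 cm plants, applied concurrently. Readout after 13–15 d greenhouse: visual 0–100 control rating against controls.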

barnyardgrass [2] = test: Test B flooded paddy test; assay type: in vivo, Echinochloa crus-galli; settings: 1000 g ai/ha, visual rating, scale 0 to 100 (0 no effect, 100 complete control), 13 to 15 days
Summary of the method: (§3)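 Scale 0–100: zero equals no visible effect, 100 complete control, judged by eye relative to controls. Timing: 13 to 15 days in greenhouse post-treatment. Growth stage at spraying: two leaves (paddy) or one to four leaves, 2–18 cm (postemergence).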

velvetleaf [3] = test: Test A pre-/postemergence herbicide test; assay type: in vivo, Abutilon theophrasti; settings: for Velvetleaf plant response rating: Preemergence, visual rating, 0 to 100 scale (0 no effect, 100 complete control)
Summary of the method: (§4)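 Greenhouse injury scoring (0–100, complete control = 100) at approximately ten days follows simultaneous pre- and postemergence application. Soil received a directed spray after seeding; seedlings of 2–10 cm at the one- to two-leaf stage were sprayed to runoff.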

giant foxtail [4] = test: Test A pre-/postemergence herbicide test; assay type: in vivo, Setaria faberi; settings: for Plant response rating, Foxtail, Giant: Postemergence; for Foxtail, Giant plant response rating: Preemergence
Summary of the method: as §4

blackgrass = test: Test B postemergence herbicide test; assay type: in vivo, Alopecurus myosuroides; settings: scale 0 (no effect) to 100 (complete control)
Summary of the method: as §3

morningglory [5] = test: Test B pre-/postemergence herbicide test; assay type: in vivo, Ipomoea coccinea; settings: preemergence, 125 g ai/ha; 0 to 100 scale, 0 is no effect, 100 is complete control
Summary of the method: as §2

pigweed = test: Test B pre-/postemergence herbicide test; assay type: in vivo, Amaranthus retroflexus
Summary of the method: as §1

wild oat = test: Test B postemergence herbicide test; assay type: in vivo, Avena fatua; settings: scale 0 (no effect) to 100 (complete control)
Summary of the method: as §3

corn = test: Test B pre-/postemergence herbicide test; assay type: in vivo, Zea mays
Summary of the method: as §1

wheat = test: Test B postemergence herbicide test; assay type: in vivo, Triticum aestivum; set-up: key to Wheat plant response rating: 0 = no effect, 100 = complete control; settings: scale 0 (no effect) to 100 (complete control)
Summary of the method: as §3

Surinam grass = test: Test B pre-/postemergence herbicide test; assay type: in vivo, Urochloa decumbens
Summary of the method: as §1

lambsquarters = test: Test B pre-/postemergence herbicide test; assay type: in vivo, Chenopodium album
Summary of the method: as §1

[6] = test system: small flower umbrella sedge; test: Test B flooded paddy test; assay type: in vivo, Cyperus difformis; settings: 1000 g ai/ha, visual rating, scale 0 to 100 (0 no effect, 100 complete control), 13 to 15 days
Summary of the method: as §3

large crabgrass [7] = test: Test A pre-/postemergence herbicide test; assay type: in vivo, Digitaria sanguinalis; settings: for Plant response rating, Crabgrass, Large: Postemergence; for Crabgrass, Large plant response rating: Preemergence
Summary of the method: as §4

redroot pigweed = test: Test A pre-/postemergence herbicide test; assay type: in vivo, Amaranthus retroflexus; settings: for Plant response rating, Pigweed: Postemergence; for Pigweed plant response rating: Preemergence
Summary of the method: as §4

rice = test: Test B flooded paddy test; assay type: in vivo, Oryza sativa; settings: 1000 g ai/ha, visual rating, scale 0 to 100 (0 no effect, 100 complete control), 13 to 15 days
Summary of the method: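 Postemergence plants were sprayed with formulated test chemicals at 2 to 18 cm height (1- to 4-leaf stage); paddy species were grown to the 2-leaf stage. After 13 to 15 days in a greenhouse, injury was rated visually against untreated controls on a 0–100 scale (0 = no effect, 100 = complete control).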

barnyardgrass [8] = test: Test B pre-/postemergence herbicide test; assay type: in vivo, Echinochloa crus-galli
Summary of the method: as §2

ducksalad = test: Test B flooded paddy test; assay type: in vivo, Heteranthera limosa; settings: 1000 g ai/ha, visual rating, scale 0 to 100 (0 no effect, 100 complete control), 13 to 15 days
Summary of the method: as §3

velvetleaf [9] = test: Test B pre-/postemergence herbicide test; assay type: in vivo, Abutilon theophrasti
Summary of the method: as §1

large crabgrass [10] = test: Test B pre-/postemergence herbicide test; assay type: in vivo, Digitaria sanguinalis
Summary of the method: as §1

morningglory [11] = test: Test A pre-/postemergence herbicide test; assay type: in vivo, Ipomoea spp.; settings: for Plant response rating, Morningglory: Postemergence; for Morningglory plant response rating: Preemergence
Summary of the method: as §4

barnyardgrass [12] = test: Test A pre-/postemergence herbicide test; assay type: in vivo, Echinochloa crus-galli; settings: for Plant response rating, Barnyardgrass: Postemergence; for Barnyardgrass plant response rating: Preemergence
Summary of the method: as §4

[13] = Postemergence, 500 g ai/ha, visual rating after 13 to 15 days, scale 0 (no effect) to 100 (complete control)
[14] = Preemergence, 500 g ai/ha, scale 0 to 100
[15] = postemergence, 125 g ai/ha, visual rating, scale 0 (no effect) to 100 (complete control)
[16] = preemergence, 125 g ai/ha, 0 to 100 scale, 0 is no effect, 100 is complete control
[17] = 500 g ai/ha, 0 to 100 scale, 0 no effect, 100 complete control
[18] = 2000 g ai/ha, 0 to 100 scale, 0 no effect, 100 complete control
[19] = 500 g ai/ha, visual rating, 0 to 100 scale (0 no effect, 100 complete control)
[20] = Postemergence, 500 g ai/ha, visual rating after 13 to 15 days
[21] = postemergence, 125 g ai/ha, visual rating

C=Cn1nc(C(C)(C)C)cc1C(=O)Nc1cccc(C(=O)OCC)c1 [Compound 78]
35: Plant response rating, Crabgrass, Large (large crabgrass [7]; [18])
40: Rice plant response rating (rice) | Morningglory plant response rating (morningglory [11]; [18]) | Plant response rating, Barnyardgrass (barnyardgrass [12]; [18])
60: Plant response rating, Foxtail, Giant (giant foxtail [4]; [18]) | Crabgrass, Large plant response rating (large crabgrass [7]; [19])
85: Plant response rating, Pigweed (redroot pigweed; [17])
10: Plant response rating, Foxtail, Giant (giant foxtail [1]; [16]) | Oat, Wild plant response rating (wild oat; [21]) | Plant response rating, Velvetleaf (velvetleaf [9]; [16]) | Crabgrass, Large plant response rating (large crabgrass [10]; [14])
0: Cocklebur plant response rating (cocklebur; [14]) | Plant response rating, Cocklebur (cocklebur; [16]) | Plant response rating, Morningglory (morningglory [5]) | Plant response rating, Pigweed (pigweed; [16]) | Corn plant response rating (corn; [14]) | Plant response rating, Corn (corn; [16]) | Plant response rating, Surinam Grass (Surinam grass; [16]) | Plant response rating, Lambsquarters (lambsquarters; [16]) | Barnyardgrass plant response rating (barnyardgrass [8]; [14]) | Plant response rating, Barnyardgrass (barnyardgrass [8]; [16]) | Plant response rating, Crabgrass, Large (large crabgrass [10]; [16])
25: Plant response rating, Morningglory (morningglory [11]; [18]) | Morningglory plant response rating (morningglory [11]; [19])
50: Plant response rating, Velvetleaf (velvetleaf [3]; Postemergence, 2000 g ai/ha, 0 to 100 scale, 0 no effect, 100 complete control) | Velvetleaf plant response rating (velvetleaf [3]; 2000 g ai/ha)
45: Barnyardgrass plant response rating (barnyardgrass [12]; [18])
20: Plant response rating, Foxtail, Giant (giant foxtail [4]; [17]) | Blackgrass plant response rating (blackgrass; [21]) | Plant response rating, Oat, Wild (wild oat; [20]) | Plant response rating, Surinam Grass (Surinam grass; [13]) | Surinam Grass plant response rating (Surinam grass; [15]) | Plant response rating, Crabgrass, Large (large crabgrass [7]; [17]) | Crabgrass, Large plant response rating (large crabgrass [10]; [15]) | Barnyardgrass plant response rating (barnyardgrass [12]; [19])
15: Plant response rating, Morningglory (morningglory [11]; [17])
100: Plant response rating, Cocklebur (cocklebur; [13])
70: Foxtail, Giant plant response rating (giant foxtail [4]; [18]) | Lambsquarters plant response rating (lambsquarters; [15]) | Velvetleaf plant response rating (velvetleaf [9]; [15])
30: Plant response rating, Foxtail, Giant (giant foxtail [1]; [13]) | Foxtail, Giant plant response rating (giant foxtail [1]; [14]) | Foxtail, Giant plant response rating (giant foxtail [1]; [15]) | Barnyardgrass plant response rating (barnyardgrass [2]) | Velvetleaf plant response rating (velvetleaf [3]; 500 g ai/ha) | Plant response rating, Blackgrass (blackgrass; [20]) | Plant response rating, Wheat (wheat; [20]) | Wheat plant response rating (wheat; [21]) | Plant response rating, Barnyardgrass (barnyardgrass [8]; [13]) | Barnyardgrass plant response rating (barnyardgrass [8]; [15]) | Ducksalad plant response rating (ducksalad) | Plant response rating, Crabgrass, Large (large crabgrass [10]; [13]) | Plant response rating, Barnyardgrass (barnyardgrass [12]; [17])
55: Foxtail, Giant plant response rating (giant foxtail [4]; [19])
90: Plant response rating, Pigweed (pigweed; [13]) | Crabgrass, Large plant response rating (large crabgrass [7]; [18]) | Plant response rating, Pigweed (redroot pigweed; [18]) | Pigweed plant response rating (redroot pigweed; [18])
80: Cocklebur plant response rating (cocklebur; [15]) | Pigweed plant response rating (pigweed; [15]) | Plant response rating, Lambsquarters (lambsquarters; [13]) | Sedge, Umbrella plant response rating [6] | Pigweed plant response rating (redroot pigweed; [19]) | Plant response rating, Velvetleaf (velvetleaf [9]; [13])
